Here are results for 16 compounds from patent US10472341B2, “Bicyclic tetrahydrothiazepine derivatives useful for the treatment of neoplastic and/or infectious diseases” (APEIRON BIOLOGICS AG, priority 2015, dated 2019).

Experiment [1] relates to aCD3/aCD28-stimulated human CD4+-T-cells. Briefly: IL-2 production and activation markers in aCD3/aCD28 stimulated isolated human CD4+-T-cells. The class given is cell-based. The following applies: IL-2 production at 3 μM compound. The procedure: • Buffy coat content was transferred to sterile plastic bottle and filled up to 480 ml with PBS, and distributed equally to 16×50 ml tubes (30 ml/tube) • Underlayed with ˜11 ml Lymphoprep and centrifuged 20 min (2200 rpm) • The interphase containing lymphocytes was taken off with transfer pipette, cells were washed twice with PBS and pooled to one tube to determine cell count (Coulter Diff ACT) Isolation of Immune Cell Subfractions from PBMCs by MACS • PBMCs were resuspended in MACS buffer (80 μl MACS-buffer/10^7 cells) and cells were isolated with Auto-MACS device using respective kits following manufacturer's recommendations TCR Stimulation and Measurement of T Cell Activation
Isolated T cells were plated in Xvivo medium at 1.5*10 ^5 cells per in 96 well culture plates and TCR-stimulated with anti-CD3/28 mAbs in the presence of compound as indicated. Cytokine production was determined at 24 h or 48 h following TCR stimulation in cell culture supernatants using commercially available ELISA kits (BD and eBioscience) as recommended by the manufacturer. T cell proliferation and CD25 expression (CD25-PC5 reagent purchased from Beckman Coulter) was determined by flow cytometry (Beckman-Coulter FC500) and analysed with Kaluza Software. For measurement of CD69 expression, isolated CD4 and CD8 T cells were plated in Xvivo medium at […] per in 96 well culture plates and TCR-stimulated with anti-CD3/28 mAbs in the presence of compound. CD69 expression was determined at 24 h following TCR stimulation by flow cytometry (CD4eF450, CD8APCeF780 and CD69-PC7 reagent purchased from eBioscience) and analysed with Kaluza Software.
Buffy coats were obtained from Austrian Red Cross, diluted 3 fold with PBS and layered onto an isotonic Ficoll separating solution d=1.077 g/m in 50 ml centrifuge tubes. The tubes were centrifuged at 914 g for 25 min at room temperature with the brakes off. The PBMC layer was removed and washed twice with ice-cold PBS. CD4 T cells were isolated using CD4 microbeads (Milteny) and the AutoMACS device following manufacturer's instructions.
Compound examples of the present invention were classified according to the following activity criteria and are listed in Table 4a: • Activity Class A: IL-2 production at 3 μM compound concentration >10 ng/mL • Activity Class B: IL-2 production at 3 μM compound concentration between 2-10 ng/mL • Activity Class C: IL-2 production at 3 μM compound concentration between 2-fold increase as compared to mean IL-2 production of stimulated cells in the absence of compounds and <2 ng/mL

Experiment [2] relates to aCD3/aCD28-stimulated human PBMCs. As to the kind of experiment: Cytokine production in aCD3/aCD28 stimulated human PBMCs. The class given is cell-based. As to conditions: PBMC, 18 h. The procedure: In order to determine the immune modulatory effect of compounds of compounds of the present invention in human PBMCs, compounds were assessed in the following assay set-up:
Buffy coats were obtained from a local hospital, diluted 3 fold with PBS and layered onto an isotonic Ficoll separating solution d=1.077 g/mL in 50 mL centrifuge tubes. The tubes were centrifuged at 914 g for 25 min at room temperature with the brakes off. The PBMC layer was removed and washed twice with ice-cold PBS. Erythrocytes were lysed by addition of ddH2O and cells were resuspended in X-Vivo15 (Lonza).
1e6 cells/mL were stimulated with soluble anti CD3/CD28 antibodies (1 μg/mL both, clones OKT3 and 28.2) in the presence of described compounds. Cells were incubated for 18 h at 37° C., 5% CO2. Assay plates were centrifuged at 400 g for 5 min and supernatants harvested. Cytokine concentration in tissue culture supernatants were determined with MSD or HTRF kits (MSD and Cisbio), according to manufacturer's instructions.

The mark [3] stands for this setting: enhancement of IFN-γ production, read-out: Activity Class IFN-γ.
Where [4] appears, read: enhancement of IL-2 production, read-out: Activity Class IL-2.

The structures appear in SMILES notation. Read-outs that look alike come from different tables or passages of the source. A value given as a limit tells only on which side of the number the result lay.

For the compound `Cl.N[C@H]1CS(=O)(=O)c2cc(F)c(C(=O)N[C@@H]3CC3(F)F)cc2N(Cc2ccc(Cl)cc2)C1=O` (single isomer, unassigned) [Example 106], in experiment [1], the “Activity Class CD4+” value was “B (IL-2 production at 3 μM compound concentration between 2-10 ng/mL)”. On the same count and under the same terms, the value for `Cl.N[C@H]1CSc2ccc(C(=O)NC3CCOCC3)cc2N(Cc2ccc(OC(F)(F)F)cc2)C1=O` [Example 8, (3R)-3-amino-N-(oxan-4-yl)-4-oxo-5-{[4-(trifluoromethoxy)phenyl]methyl}-2,3,4,5-tetrahydro-1,5-benzothiazepine-7-carboxamide hydrochloride] was “C (IL-2 production at 3 μM compound concentration between 2-fold increase as compared to mean IL-2 production of stimulated cells in the absence of compounds and <2 ng/mL)”. As for `CCCCNC(=O)c1ccc2c(c1)N(Cc1ccc(N3CCOCC3)cc1)C(=O)[C@@H](N)CS2.Cl` [Example 13, (3R)-3-amino-N-butyl-5-{[4-(morpholin-4-yl)phenyl]methyl}-4-oxo-2,3,4,5-tetrahydro-1,5-benzothiazepine-7-carboxamide hydrochloride], the “Activity Class CD4+” value in experiment [1] was “C (IL-2 production at 3 μM compound concentration between 2-fold increase as compared to mean IL-2 production of stimulated cells in the absence of compounds and <2 ng/mL)”. Same read-out and setting: with `Cl.N[C@H]1CSc2cc(F)c(C(=O)NC3CCOCC3)cc2N(Cc2ccc(OC(F)(F)F)cc2)C1=O` [Example 14, (3R)-3-amino-8-fluoro-N-(oxan-4-yl)-4-oxo-5-{[4-(trifluoromethoxy)phenyl]methyl}-2,3,4,5-tetrahydro-1,5-benzothiazepine-7-carboxamide hydrochloride] the entry was “C (IL-2 production at 3 μM compound concentration between 2-fold increase as compared to mean IL-2 production of stimulated cells in the absence of compounds and <2 ng/mL)”. `CC(C)NC(=O)c1cc2c(cc1F)SC[C@H](N)C(=O)N2Cc1ccc(OC(F)(F)F)cc1.Cl` [Example 15, (3R)-3-amino-8-fluoro-4-oxo-N-(propan-2-yl)-5-{[4-(trifluoromethoxy)phenyl]-methyl}-2,3,4,5-tetrahydro-1,5-benzothiazepine-7-carboxamide hydrochloride]: the “Activity Class CD4+” value in experiment [1] was “B (IL-2 production at 3 μM compound concentration between 2-10 ng/mL)”. For the compound `Cl.N[C@H]1CSc2cc(F)c(C(=O)NCc3ccccc3)cc2N(Cc2ccc(OC(F)(F)F)cc2)C1=O` [Example 16, (3R)-3-amino-N-benzyl-8-fluoro-4-oxo-5-{[4-(trifluoromethoxy)phenyl]methyl}-2,3,4,5-tetrahydro-1,5-benzothiazepine-7-carboxamide hydrochloride], in experiment [1], the “Activity Class CD4+” value is given as “B (IL-2 production at 3 μM compound concentration between 2-10 ng/mL)”.

`CC(=O)NCCCCCOc1ccc(CNC(=O)c2ccc3c(c2)N(Cc2ccc(OC(F)(F)F)cc2)C(=O)[C@@H](N)CS3)cc1.Cl` [Example 19, (3R)-3-amino-N-({4-[(5-acetamidopentyl)oxy]phenyl}methyl)-4-oxo-5-{[4-(trifluoromethoxy)phenyl]methyl}-2,3,4,5-tetrahydro-1,5-benzothiazepine-7-carboxamide hydrochloride]: the “Activity Class CD4+” value in experiment [1] was “C (IL-2 production at 3 μM compound concentration between 2-fold increase as compared to mean IL-2 production of stimulated cells in the absence of compounds and <2 ng/mL)”.

Turning to `CC(C)(C)c1cc(NC(=O)c2ccc3c(c2)N(Cc2ccc(Cl)cc2)C(=O)[C@@H](N)CS3)no1.Cl` [Example 24, (3R)-3-amino-N-(5-tert-butyl-1,2-oxazol-3-yl)-5-[(4-chlorophenyl)methyl]-4-oxo-2,3,4,5-tetrahydro-1,5-benzothiazepine-7-carboxamide hydrochloride], in experiment [1], the “Activity Class CD4+” value was “C (IL-2 production at 3 μM compound concentration between 2-fold increase as compared to mean IL-2 production of stimulated cells in the absence of compounds and <2 ng/mL)”. Same read-out and setting: the value for `Cl.N[C@H]1CSc2ccc(C(=O)NCc3ccc(F)cc3)cc2N(Cc2ccc(-c3csnn3)cc2)C1=O` [Example 32, (3R)-3-amino-N-[(4-fluorophenyl)methyl]-4-oxo-5-{[4-(1,2,3-thiadiazol-4-yl)phenyl]-methyl}-2,3,4,5-tetrahydro-1,5-benzothiazepine-7-carboxamide hydrochloride] was “C (IL-2 production at 3 μM compound concentration between 2-fold increase as compared to mean IL-2 production of stimulated cells in the absence of compounds and <2 ng/mL)”; that for `N[C@H]1CSc2ccc(C(=O)NCC3CCOCC3)cc2N(Cc2ccc(F)cc2)C1=O` [Example 45, (3R)-3-amino-5-[(4-fluorophenyl)methyl]-N-(oxan-4-ylmethyl)-4-oxo-2,3,4,5-tetrahydro-1,5-benzothiazepine-7-carboxamide] was “C (IL-2 production at 3 μM compound concentration between 2-fold increase as compared to mean IL-2 production of stimulated cells in the absence of compounds and <2 ng/mL)”.

As to `COCCOCCNC(=O)c1cc2c(cc1F)S(=O)(=O)C[C@H](N)C(=O)N2Cc1ccc(Cl)cc1` [Example 172, (3R)-3-amino-5-[(4-chlorophenyl)methyl]-8-fluoro-N-[2-(2-methoxyethoxy)ethyl]-1,1,4-trioxo-2,3,4,5-tetrahydro-1λ^6,5-benzothiazepine-7-carboxamide], the results for the EC50 in experiment [2] (setting [3]) and in experiment [2] (setting [4]) were 1.58 to 5.01 µM and greater than 5.01 µM, respectively. In the same order, the values of `C#CCCNC(=O)c1cc2c(cc1F)S(=O)(=O)C[C@H](N)C(=O)N2Cc1ccc(Cl)cc1` [Example 173, (3R)-3-amino-N-(but-3-yn-1-yl)-5-[(4-chlorophenyl)methyl]-8-fluoro-1,1,4-trioxo-2,3,4,5-tetrahydro-1λ^6,5-benzothiazepine-7-carboxamide] are 1.58 to 5.01 µM and greater than 5.01 µM. Consider `C#CCCCNC(=O)c1cc2c(cc1F)S(=O)(=O)C[C@H](N)C(=O)N2Cc1ccc(Cl)cc1` [Example 174, (3R)-3-amino-5-[(4-chlorophenyl)methyl]-8-fluoro-1,1,4-trioxo-N-(pent-4-yn-1-yl)-2,3,4,5-tetrahydro-1λ^6,5-benzothiazepine-7-carboxamide], for which the EC50 in experiment [2] (setting [3]) and in experiment [2] (setting [4]) was 1.58 to 5.01 µM each time.

Regarding `COc1ccc(CNC(=O)c2ccc3c(c2)N(Cc2ccc(Cl)cc2)C(=O)[C@@H](N)CS3(=O)=O)cn1` [Example 177, (3R)-3-amino-5-[(4-chlorophenyl)methyl]-N-[(6-methoxypyridin-3-yl)methyl]-1,1,4-trioxo-2,3,4,5-tetrahydro-1λ^6,5-benzothiazepine-7-carboxamide], the values for the EC50 in experiment [2] (setting [3]) and in experiment [2] (setting [4]) were less than 1.58 µM and 1.58 to 5.01 µM, respectively. On the same counts, the results for `N[C@H]1CS(=O)(=O)c2ccc(C(=O)NC3CC4(COC4)C3)cc2N(Cc2ccc(Cl)cc2)C1=O` [Example 181, (3R)-3-amino-5-[(4-chlorophenyl)methyl]-N-{2-oxaspiro[3.3]heptan-6-yl}-1,1,4-trioxo-2,3,4,5-tetrahydro-1λ^6,5-benzothiazepine-7-carboxamide] are greater than 5.01 µM and greater than 5.01 µM. `CCN[C@H]1CS(=O)(=O)c2cc(F)c(C(=O)NCCCC(F)(F)F)cc2N(Cc2ccc(Cl)cc2)C1=O` [Example 182, (3R)-5-[(4-chlorophenyl)methyl]-3-(ethylamino)-8-fluoro-1,1,4-trioxo-N-(4,4,4-trifluorobutyl)-2,3,4,5-tetrahydro-1λ^6,5-benzothiazepine-7-carboxamide]: the EC50 in experiment [2] (setting [3]) was 1.58 to 5.01 µM; in experiment [2] (setting [4]), greater than 5.01 µM.
